According to patent US11000530B2, “Methods and compositions for the treatment of ophthalmic conditions” (Murray & Poole Enterprises, Limited, priority 2017, dated 2021):

Legend:
[1] = Sedimentation in liquid solutions; assay type: physicochemical; conditions: micronized, particulate form
[2] = exposure to oxygen: oxygenation of diclofenac, degradation of ofloxacin into ofloxacin-N-oxide; cited from earlier work

| Compound | time to sedimentation in liquid solutions [1] | compatibility of diclofenac and ofloxacin [2] |
| --- | --- | --- |
| CC(=O)OCC(=O)[C@@]1(O)CC[C@H]2[C@@H]3CCC4=CC(=O)C=C[C@]4(C)[C@H]3[C@@H](O)C[C@@]21C [Prednisolone acetate] | less than one minute | – |
| O=C(O)Cc1ccccc1Nc1c(Cl)cccc1Cl [Diclofenac] | – | generally incompatible |
